What all share (assay type): biochemical
In one experiment the target is T1, MMP-1 (Homo sapiens, UniProt P03956).
T1 construct: purchased Calbiochem
T1 sequence (P03956 100-469): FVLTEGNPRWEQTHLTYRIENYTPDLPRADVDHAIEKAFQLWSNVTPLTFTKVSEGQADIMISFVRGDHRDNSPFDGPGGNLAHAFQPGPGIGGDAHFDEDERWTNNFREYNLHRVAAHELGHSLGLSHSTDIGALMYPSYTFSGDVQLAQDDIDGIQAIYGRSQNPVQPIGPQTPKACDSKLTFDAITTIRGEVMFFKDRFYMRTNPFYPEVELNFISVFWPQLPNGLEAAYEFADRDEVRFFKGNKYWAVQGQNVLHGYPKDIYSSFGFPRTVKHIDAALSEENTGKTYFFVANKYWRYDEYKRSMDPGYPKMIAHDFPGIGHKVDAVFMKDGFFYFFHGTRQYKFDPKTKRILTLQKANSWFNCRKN
Kind of experiment: In vitro fluorometric inhibition assay of MMPs: MMP-1. The conditions noted are these: Table I, cells without (*). As to the method:
(§1) Analysis of the In Vitro Inhibition Activity of Zinc Metalloproteinases: In Vitro Inhibition of MMMPs
(§2) The human recombinant Progelatinase A (pro-MMP-2), B (pro-MMP-9), MMP-14cd and MMP-16cd, were provided by Prof. Gillian Murphy (Oncology Department, Cambridge University, UK); pro-MMP-1, pro-MMP-3, pro-MMP-7, pro-MMP-8, pro-MMP-13 and pro-MMP-14 were bought from Calbiochem. The proenzymes were activated immediately before the use with p-aminophenylmercuric acetate (APMA 2 mM for 1 h at 37° C. for MMP-1, MMP-2 and MMP-8, 1 mM for 1 h at 37° C. for MMP-9 and MMP-7, 1 mM for 30 min at 37° C. for MMP-13). Pro-MMP-14 and pro-MMP-3 were activated with trypsin 5 μg/ml for 15 min at 37° C. followed the soybean trypsin inhibitor (SBTI) 23 μg/ml for pro-MMP-14 and 62 μg/ml for pro-MMP-3. The catalytic domains of MMP-14 and MMP-16 were utilized without activation.
(§3) For the assay measurements, the stock solutions of the inhibitor (DMSO, 100 mM) were further diluted up to 7 different concentrations (0.01 nM-300 μM) for each MMP, in the buffer for the fluorometric assay (FAB: Tris 50 mM, pH=7.5, NaCl 150 mM, CaCl2 10 mM, Brij 35 0.05% and DMSO 1%). The solutions of activated enzyme (final concentrations 2.9 nM for MMP-2, 2.7 nM for MMP-9, 2.4 nM for MMP-7, 1 nM for MMP-14 and MMP-3, 1.5 nM for MMP-8 and MMP-16cd, 0.84 nM for MMP-14cd, 0.66 nM for MMP-13 and 0.20 nM for MMP-1) and of inhibitor were incubated in the assay buffer for 4 h at 25° C. After the addition of solution of fluorogenic substrate 200 μM Mca-Arg-Pro-Lys-Pro-Val-Glu-Nva-Trp-Arg-Lys(Dnp)-NH2 (Sigma) for MMP-3 and Mca-Lys-Pro-Leu-Gly-Leu-Dpa-Ala-Arg-NH2 (Bachem) for all the other enzymes in DMSO (final concentration 2 μM), the hydrolysis were monitored every 15 sec for 20 min, recording the increase in fluorescence (λex=325 nm, λem=400 nm) with a Molecular Device SpectraMax Gemini XS plates reader. The assays were made in triplicate in a total volume of 200 μl per well on 96 well-plates for microtitolation (Corning, black, NBS). The control wells were without inhibitor.
(§4) The inhibition activity of MMP was expressed in relative fluorescence unit (RFU). The percentage of inhibition was calculated using control reactions without inhibitor.
(§5) IC50 was determined using the formula: Vi/Vo=1/(1+[I]/IC50), wherein Vi is the initial rate of the substrate scission in presence of the inhibitor at the concentration [I] and Vo is the initial rate in the absence of inhibitor. The results were analyzed with the SoftMax Pro software and the GraFit software.

In another experiment the target is T2, MMP-2 (Homo sapiens, UniProt P08253).
T2 construct: gift of Prof; Gillian Murphy (Oncology Department, Cambridge University, UK)
T2 sequence (P08253 110-660): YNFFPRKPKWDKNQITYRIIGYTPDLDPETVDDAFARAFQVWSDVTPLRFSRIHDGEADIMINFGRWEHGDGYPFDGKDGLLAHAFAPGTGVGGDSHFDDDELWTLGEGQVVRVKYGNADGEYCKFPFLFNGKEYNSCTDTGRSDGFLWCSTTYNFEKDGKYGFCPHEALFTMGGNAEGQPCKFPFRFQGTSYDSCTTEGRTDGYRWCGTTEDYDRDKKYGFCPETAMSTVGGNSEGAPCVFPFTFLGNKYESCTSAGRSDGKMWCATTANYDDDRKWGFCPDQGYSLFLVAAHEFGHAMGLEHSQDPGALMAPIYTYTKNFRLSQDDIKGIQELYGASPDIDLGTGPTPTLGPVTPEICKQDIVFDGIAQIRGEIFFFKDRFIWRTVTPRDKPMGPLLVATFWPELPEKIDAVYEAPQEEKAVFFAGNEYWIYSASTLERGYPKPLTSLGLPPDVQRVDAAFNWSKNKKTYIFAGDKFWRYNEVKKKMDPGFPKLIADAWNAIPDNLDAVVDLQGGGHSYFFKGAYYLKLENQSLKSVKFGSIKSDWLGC
Kind of experiment: In vitro fluorometric inhibition assay of MMPs: MMP-2. As to the method:
as §1, §2, §3, §4, §5

A further experiment has as its target T3, MMP-9 (Homo sapiens, UniProt P14780).
T3 construct: gift of Prof; Gillian Murphy (Oncology Department, Cambridge University, UK)
In words: In vitro fluorometric inhibition assay of MMPs: MMP-9. Here is the method:
as §1
The human recombinant Progelatinase A (pro-MMP-2), B (pro-MMP-9), MMP-14cd and MMP-16cd, were provided by Prof. Gillian Murphy (Oncology Department, Cambridge University, UK); pro-MMP-1, pro-MMP-3, pro-MMP-7, pro-MMP-8, pro-MMP-13 and pro-MMP-14 were bought from Calbiochem. […] Pro-MMP-14 and pro-MMP-3 were activated with trypsin 5 μg/ml for 15 min at 37° C. followed the soybean trypsin inhibitor (SBTI) 23 μg/ml for pro-MMP-14 and 62 μg/ml for pro-MMP-3. The catalytic domains of MMP-14 and MMP-16 were utilized without activation.
as §3, with “The solutions of activated enzyme (final concentrations 2.9 nM for MMP-2, 2.7 nM for MMP-9, 2.4 nM for MMP-7, 1 nM for MMP-14 and MMP-3, 1.5 nM for MMP-8 and MMP-16cd, 0.84 nM for MMP-14cd, 0.66 nM for MMP-13 and 0.20 nM for MMP-1) and of inhibitor were incubated in the assay buffer for 4 h at 25° C.” left out
as §4, §5

A further experiment addresses T4, MMP-14 (Homo sapiens, UniProt P50281).
T4 construct: purchased Calbiochem
Kind of experiment: In vitro fluorometric inhibition assay of MMPs: MMP-14. As to the method: as §1, §2, §3, §4, §5

SMILES strings stand for the structures.

The results in this text go back to US8093386B2, “Thioaryl substituted inhibitors of zinc proteases and their use” (Bracco Imaging S.p.A, priority 2006, dated 2012).

In general, IC50 refers to the concentration at which inhibition is half-maximal. Higher therefore signals lower potency.

T3 sequence (P14780 107-707 limits assumed): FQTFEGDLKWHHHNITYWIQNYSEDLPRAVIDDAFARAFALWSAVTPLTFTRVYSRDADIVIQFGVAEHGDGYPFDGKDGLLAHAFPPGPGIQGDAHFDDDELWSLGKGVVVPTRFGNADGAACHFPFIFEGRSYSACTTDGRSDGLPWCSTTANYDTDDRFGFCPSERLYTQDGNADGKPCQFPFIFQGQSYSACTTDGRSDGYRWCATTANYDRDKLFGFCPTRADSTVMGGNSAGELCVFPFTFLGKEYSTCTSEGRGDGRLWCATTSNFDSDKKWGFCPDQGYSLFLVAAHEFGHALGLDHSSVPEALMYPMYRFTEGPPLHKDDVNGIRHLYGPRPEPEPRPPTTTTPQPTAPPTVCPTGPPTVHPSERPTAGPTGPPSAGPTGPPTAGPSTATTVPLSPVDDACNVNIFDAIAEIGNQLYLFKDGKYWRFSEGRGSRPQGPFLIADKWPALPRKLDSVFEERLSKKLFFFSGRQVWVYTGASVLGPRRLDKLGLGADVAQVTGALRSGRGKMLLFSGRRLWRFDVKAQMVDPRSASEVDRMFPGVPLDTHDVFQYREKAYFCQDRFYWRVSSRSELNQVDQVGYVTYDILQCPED

As for `O=C1CC(c2ccccc2Sc2ccc(-c3ccccc3)cc2)C(=O)N1O` (centres unmarked), the IC50 against MMP-1 came out at 83 ± 11 µM; on MMP-2 (Table I, cells without (*)) it was 12 ± 0.8 µM; against MMP-9 (Table I, cells without (*)), 35 ± 2.7 µM.
For `O=C1CC(c2ccccc2S(=O)(=O)c2ccc(-c3ccccc3)cc2)C(=O)N1O` (centres unmarked), in that order: 186 ± 8 µM, 7 ± 0.5 µM and 47 ± 2.7 µM.
As to `O=C(O)CCC(C(=O)O)c1ccccc1Sc1ccc(-c2ccccc2)cc1` (centres unmarked), the IC50 against MMP-1 is 190 ± 10 µM; against MMP-2 (Table I, cells without (*)) it was 1.8 ± 0.16 µM; against MMP-9 (Table I, cells without (*)), 17 ± 0.96 µM.
Regarding `COc1ccc(Oc2ccc(Sc3ccccc3C(=O)NS(C)(=O)=O)cc2)cc1` [Compound 8, 2-(4-(4-methoxyphenoxy)phenylthio)-N-(methylsulphonyl)benzamide], the IC50 against MMP-2 (Table III, cells marked (*)) worked out at 12.2 ± 1.6 µM; against MMP-9 (Table III, cells marked (*)), 17.8 ± 1.3 µM; on MMP-14 (Table III, cells marked (*)) it was 79 ± 6 µM.
Turning to `COc1ccc(Oc2ccc(Sc3ccccc3CC(=O)O)cc2)cc1` [Compound 11, 2-(2-(4-(4-methoxyphenoxy)phenylthio)phenyl)acetic acid], the IC50 against MMP-2 (Table III, cells without (*)) was found to be 20 ± 8 µM; at MMP-9 (Table III, cells without (*)), 48.7 ± 8.6 µM; against MMP-14 (Table III, cells without (*)), 297 ± 64 µM.
`COc1ccc(Oc2ccc(Sc3ccccc3CC(=O)NO)cc2)cc1` [Compound 13]: the IC50 against MMP-2 (Table III, cells without (*)) is 0.568 ± 0.031 µM; against MMP-9 (Table III, cells without (*)), 0.105 ± 0.013 µM.
In the case of `COc1ccc(-c2ccc(Sc3ccccc3CC(=O)O)cc2)cc1` [Compound 22, 2-(2-(4′-methoxybiphenyl-4-ylthio)phenyl)acetic acid], the half-inhibitory concentration (IC50) amounted to 0.114 ± 0.005 µM at MMP-2 (Table II, cells marked (*)) and 3.65 ± 0.2 µM at MMP-14 (Table II, cells marked (*)).
With `COc1ccc(-c2ccc(Sc3ccccc3CC(=O)NS(C)(=O)=O)cc2)cc1` [Compound 25, 2-(2-(4′-methoxybiphenyl-4-ylthio)phenyl)-N-(methylsulphonyl)acetamide], the IC50 against MMP-2 (Table II, cells without (*)) worked out at 5.34 ± 0.65 µM; at MMP-9 (Table II, cells without (*)) it was 17.7 ± 1.4 µM; against MMP-14 (Table II, cells without (*)) it was 127 ± 6.9 µM.
With `O=C(Cc1ccccc1Sc1ccc(-c2ccsc2)cc1)NO` [Compound 30, N-hydroxy-2-(2-(4-(thiophene-3-yl)phenylthio)phenyl)acetamide], the half-inhibitory concentration (IC50) against MMP-2 (Table I, cells marked (*)) was 0.0379 ± 0.0022 µM; at MMP-9 (Table I, cells marked (*)), 1.11 ± 0.136 µM.
For the molecule `COc1ccc(Oc2ccc(S(=O)(=O)c3ccccc3C(=O)NS(C)(=O)=O)cc2)cc1` [Compound 38, 2-(4-(4-methoxyphenoxy)phenylsulphonyl)-N-(methylsulphonyl)benzamide], the IC50 at MMP-2 (Table III, cells marked (*)) came out at 20.5 ± 2.1 µM; against MMP-9 (Table III, cells marked (*)) it was 101 ± 5.9 µM; against MMP-14 (Table III, cells marked (*)) it was 528 ± 58.1 µM.
Consider `COc1ccc(Oc2ccc(Sc3ccccc3CC(=O)NS(C)(=O)=O)cc2)cc1` [Compound 39, 2-(2-(4-(4-methoxyphenoxy)phenylthio)phenyl)-N-(methylsulphonyl)acetamide], for which the IC50 at MMP-2 (Table III, cells marked (*)) is 183 ± 18.4 µM; against MMP-9 (Table III, cells marked (*)), 106 ± 23.6 µM; against MMP-14 (Table III, cells marked (*)), 272 ± 18.7 µM.
As to `COc1ccc(Oc2ccc(S(=O)(=O)c3ccccc3CC(=O)NS(C)(=O)=O)cc2)cc1` [Compound 43, 2-(2-(4-(4-methoxyphenoxy)phenylsulphonyl)phenyl)-N-(methylsulphonyl)acetamide], the IC50 was 78.6 ± 6.3 µM at MMP-2 (Table III, cells marked (*)); 47.3 ± 2 µM against MMP-9 (Table III, cells marked (*)); 260 ± 30.1 µM at MMP-14 (Table III, cells marked (*)).
Regarding `COc1ccc(-c2ccc(Sc3ccccc3C(=O)O)cc2)cc1` [Compound 47, 2-(4′-methoxybiphenyl-4-ylthio)benzoic acid], the IC50 on MMP-2 (Table II, cells marked (*)) was 62.5 ± 6.27 µM; against MMP-9 (Table II, cells marked (*)) it was 83.5 ± 5.87 µM; at MMP-14 (Table II, cells marked (*)) it was 116 ± 9.79 µM.
In the case of `COc1ccc(-c2ccc(Sc3ccccc3C(=O)NS(C)(=O)=O)cc2)cc1` [Compound 48, 2-(4′-methoxybiphenyl-4-ylthio)-N-(methylsulphonyl)benzamide], the concentration for half-maximal inhibition (IC50) on MMP-2 (Table II, cells without (*)) is 41.8 ± 5.1 µM; against MMP-14 (Table II, cells without (*)), 73.1 ± 7.9 µM.
As to `COc1ccc(-c2ccc(Sc3ccccc3C(C)C(=O)O)cc2)cc1` (centres unmarked) [Compound 54], the IC50 on MMP-2 (Table II, cells marked (*)) turned out to be 0.159 ± 0.0068 µM; at MMP-14 (Table II, cells marked (*)), 9.95 ± 0.916 µM.
On the same counts, the results for `COc1ccc(-c2ccc(Sc3ccccc3C(C)C(=O)NO)cc2)cc1` (centres unmarked) [Compound 56a, N-hydroxy-2-(2-(4′-methoxybiphenyl-4-ylthio)phenyl)propanamide] are 0.0272 ± 0.0016 µM and 6.5 ± 0.597 µM.
On to `COc1ccc(-c2ccc(Sc3ccccc3C(C)C(=O)NS(C)(=O)=O)cc2)cc1` (centres unmarked) [Compound 57, 2-(2-(4′-methoxybiphenyl-4-ylthio)phenyl)-N-(methylsulphonyl)propanamide], for which the IC50 against MMP-2 (Table II, cells without (*)) turned out to be 65.8 ± 5.8 µM; on MMP-9 (Table II, cells without (*)), 73.7 ± 7.8 µM; on MMP-14 (Table II, cells without (*)), 156 ± 9.5 µM.
Turning to `COc1ccc(Oc2ccc(S(=O)(=O)c3ccccc3CP(=O)(O)O)cc2)cc1` [Compound 72, 2-(4-(4-methoxyphenoxy)phenylsulphonyl)benzyl phosphonic acid], the half-maximal inhibitory concentration (IC50) on MMP-2 (Table III, pH 6.7) was found to be 0.571 ± 0.045 µM; on MMP-9 (Table III, pH 6.7), 0.168 ± 0.027 µM; against MMP-14 (Table III, pH 6.7), 1.95 ± 0.212 µM.
With `COc1ccc(-c2ccc(S(=O)(=O)c3ccccc3CP(=O)(O)O)cc2)cc1` [Compound 86, 2-(4′-methoxybiphenyl-4-ylsulphonyl)benzylphosphonic acid], the half-inhibitory concentration (IC50) against MMP-2 (Table II, cells marked (*)) turned out to be 0.384 ± 0.031 µM; against MMP-9 (Table II, cells marked (*)) it was 2.47 ± 0.212 µM; against MMP-14 (Table II, cells marked (*)) it was 8.33 ± 0.511 µM.
Regarding `COc1ccc(-c2ccc(S(=O)(=O)c3ccccc3C(=O)NS(C)(=O)=O)cc2)cc1` [Compound 106, 2-(4′-methoxybiphenyl-4-yl-sulphonyl)-N-(methylsulphonyl)benzamide], the IC50 was found to be 22.5 ± 2.1 µM on MMP-2 (Table II, cells without (*)) and 64.7 ± 2.9 µM against MMP-14 (Table II, cells without (*)).
